Measurements reported in patent US4464359A, “(2'-5')-Oligo (3'-deoxyadenylate) and derivatives thereof” (Research Corporation, priority 1981, dated 1984).
Where “and” joins values, the source holds several entries; their conditions need not be identical. Equal entries are not always repeated. Where two headings read alike, the source gives them in different places.

Key:
[1] = system: Raji lymphoblastoid cell line; test: Cytotoxicity by colony formation in microtiter plates, Raji; format: cell-based; conditions: for Concentration at which colony formation was inhibited by greater than 50 percent: treatment for 7 days
Description: (§1) Heparinized whole venous blood was obtained from the umbilical cords of newborn infants (human umbilical cord lymphocytes) or EBV-seronegative volunteers (peripheral blood lymphocytes) in collaboration with Temple University Hospital, Philadelphia, PA. Mononuclear leukocytes were prepared by the Ficoll-Hypaque method of Boyum (Scand. J. Clin. Invest. 21 (Sup. 97), 77 (1968)) and were cultured in RPMI-1640 supplemented with 20% fetal bovine serum as described (Henderson et al, Virology 76, 152 (1977)). The lymphoblastoid cell lines BJAB and RAJI were gifts of Drs. Werner and Gertrude Henle, Children's Hospital, University of Pennsylvania, Philadelphia, PA, and were cultured as described above. The lymphoblastoid line C85-5C was obtained by transformation of human umbilical cord lymphocytes following infection with EBV and maintained as described aove. Cultured mouse L cells were maintained in minimum essential medium (Eagle) supplemented with Earle's salts, L-glutamine and 6% fetal bovine serum. Interferon-treated mouse L cells were supplied by Dr. Esther H. Chang, National Cancer Institute, NIH. […] EBV stocks were maintained at -70° C. until use. Human umbilical cord lymphocytes and peripheral blood lymphocytes were infected as described (Henderson et al, Supra).
(§2) Therefore, the effect of these agents on colony formation in closely related lymphoblastoid cell lines was determined (Table 3).

[2] = Stability (hydrolysis) in HeLa cell extracts; format: in vitro ADME; conditions: 500 μM; cellulose tlc (solvents A and B)
Description: FIG. 2 is a stability representation of (2'-5')p3 A(pA)n and (2'-5')p3 3'dA(p3'dA)n in HeLa cell extracts.
The stability of (2'-5')ppp3'dA(p3'dA)n in HeLa cell extracts was compared to that of (2'-5')pppA(pA)n. […] With 500 μM (2'-5')pppA(pA)n, there was a 50% hydrolysis in 45 min as determined by DEAE cellulose chromatography; with 500 μM authentic core analog, (2'-5')3'dA(p3'dA)2, there was no hydrolysis as determined by cellulose tlc (solvents A and B). Neither cordycepin nor 3'dAMP was detected. The lack of hydrolysis of the analog may be similar to the lack of hydrolysis of (3'-5')2'-deoxyoligonucleotides by the 2',5'-phosphodiesterase.

Epstein-Barr Virus (EBV) [3] = test: EBV-induced morphological transformation of lymphocytes; format: cell-based; conditions: absence of interferon
Description: as §1
(§3) The antiviral properties of 5'-dephosphorylated "core" (2'-5')A(pA)2, (2'-5')A(pA)3 and (2'-5')3'dA-(p3'dA)2 were compared to the antiviral properties of IFN-α and IFN-β. The (2'-5')oligonucleotides and interferons inhibited Epstein-Barr Virus (EBV)-induced stimulation of DNA synthesis in EBV infected human lymphocytes. […] The "core" 3'-deoxy (2'-5') oligonucleotide analog inhibited EBV-induced morphological transformation of lymphocytes much the same as "core" (2'-5')A(pA)2 and (2'-5')A(pA)3.

[4] = system: Herpes Simplex Virus Type 1 (HSV-1); test: Infected centers assay: HSV-1 exposed leukocytes plated onto human foreskin fibroblast monolayers, cytopathic effects (cpe); format: cell-based; conditions: for development of cpe from HSV-1 infected leukocytes / HSV-1 replication: 72 hr incubation, human foreskin fibroblast monolayers
Description: Therefore, we employed an infected centers assay utilizing lymphocytes to determine the ability of (2'-5') oligonucleotides to inhibit HSV-1. After incubation for 72 hr with or without (2'-5')oligonucleotides, leukocytes exposed to HSV-1 were plated onto human foreskin fibroblast monolayers (Table 2).

Epstein-Barr Virus (EBV) [5] = test: EBV-induced stimulation of DNA synthesis in EBV infected human lymphocytes; format: cell-based
Description: as §1

uninfected lymphocytes = test: DNA synthesis of uninfected lymphocytes; format: cell-based, human
Description: as §1, §3

[6] = system: BJAB lymphoblastoid cell line; test: Cytotoxicity by colony formation in microtiter plates, BJAB; format: cell-based; conditions: for Concentration at which colony formation was inhibited by greater than 50 percent: treatment for 7 days
Description: as §1, §2

[7] = system: C85-5C lymphoblastoid cell line; test: Cytotoxicity by colony formation in microtiter plates, C85-5C; format: cell-based, human; conditions: treatment for 7 days
Description: as §1, with “Human umbilical cord lymphocytes and peripheral blood lymphocytes were infected as described (Henderson et al, Supra).” left out
as §2

[8] = system: lymphoblastoid cell lines; test: Lymphoblast colony formation / cytotoxicity, cell line not given; format: cell-based
Description: as §1, with “Mononuclear leukocytes were prepared by the Ficoll-Hypaque method of Boyum (Scand. J. Clin. Invest. 21 (Sup. 97), 77 (1968)) and were cultured in RPMI-1640 supplemented with 20% fetal bovine serum as described (Henderson et al, Virology 76, 152 (1977)).” left out
as §2

Compound	concentration found toxic (inhibition of colony formation) [1]	Concentration at which colony formation was inhibited by greater than 50 percent [1] [µM]	EBV-induced morphological transformation of lymphocytes (Epstein-Barr Virus (EBV) [3])	cpe at given number of HSV-exposed leukocytes per cell ([4]; 10 μM, 2 × 10^5 leukocytes)	cpe at given number of HSV-exposed leukocytes per cell ([4]; 10 μM, 2.2 × 10^4 leukocytes)	cpe at given number of HSV-exposed leukocytes per cell ([4]; 10 μM, 6.7 × 10^4 leukocytes)	cpe at given number of HSV-exposed leukocytes per cell ([4]; 50 μM, 2 × 10^5 leukocytes)	cpe at given number of HSV-exposed leukocytes per cell ([4]; 50 μM, 2.2 × 10^4 leukocytes)	cpe at given number of HSV-exposed leukocytes per cell ([4]; 50 μM, 6.7 × 10^4 leukocytes)	cpe at given number of HSV-exposed leukocytes per cell ([4]; 75 μM, 2 × 10^5 leukocytes)	cpe at given number of HSV-exposed leukocytes per cell ([4]; 75 μM, 2.2 × 10^4 leukocytes)	cpe at given number of HSV-exposed leukocytes per cell ([4]; 75 μM, 6.7 × 10^4 leukocytes)	cpe at given number of HSV-exposed leukocytes per cell ([4]; 150 μM, 2.2 × 10^4 leukocytes)	development of cpe from HSV-1 infected leukocytes / HSV-1 replication [4]	EBV-induced stimulation of DNA synthesis (Epstein-Barr Virus (EBV) [5])	DNA synthesis of uninfected lymphocytes (uninfected lymphocytes)	concentration found toxic (inhibition of colony formation) [6]	Concentration at which colony formation was inhibited by greater than 50 percent [6] [µM]	cpe at given number of HSV-exposed leukocytes per cell ([4]; 150 μM, 2 × 10^5 leukocytes)	cpe at given number of HSV-exposed leukocytes per cell ([4]; 150 μM, 6.7 × 10^4 leukocytes)	other results
Nc1ncnc2c1ncn2[C@@H]1O[C@H](COP(=O)(O)O[C@@H]2C[C@@H](COP(=O)(O)O[C@@H]3C[C@@H](CO)O[C@H]3n3cnc4c(N)ncnc43)O[C@H]2n2cnc3c(N)ncnc32)C[C@H]1O [(2'-5')3'dA(p3'dA)2, 3'-deoxyadenylyl (2'-5')3'-deoxyadenylyl(2'-5')3'-deoxyadenosine]	no toxicity	> 300	inhibited	+++	+	++	++	+	++	++	0	+	0	less effective in inhibiting the development of cpe	inhibited only viral-induced DNA synthesis	inhibited only viral-induced DNA synthesis	no toxicity	> 300	–	–	concentration found toxic (inhibition of colony formation) ([1]; listed as (2'-5')2'dA(p3'dA)3): > 300 µM; hydrolysis in HeLa cell extracts [2]: no hydrolysis; concentration found toxic (inhibition of colony formation) ([6]; listed as (2'-5')2'dA(p3'dA)3): > 300 µM
IFN-α	–	–	–	–	–	–	–	–	–	–	–	–	–	–	inhibited	–	–	–	–	–	Concentration at which colony formation was inhibited by greater than 50 percent [7]: > 1000 U/ml; cytotoxicity / effect on lymphoblast colony formation [8]: no appreciable effect
Nc1ncnc2c1ncn2[C@@H]1O[C@H](COP(=O)(O)O[C@@H]2[C@H](O)[C@@H](COP(=O)(O)O[C@@H]3[C@H](O)[C@@H](COP(=O)(O)O[C@@H]4[C@H](O)[C@@H](CO)O[C@H]4n4cnc5c(N)ncnc54)O[C@H]3n3cnc4c(N)ncnc43)O[C@H]2n2cnc3c(N)ncnc32)[C@@H](O)[C@H]1O [(2'-5')A(pA)3, adenylyl(2'-5')adenylyl(2'-5')-adenylyl (2'-5')adenosine]	–	50	inhibited	++	0	+	+	0	0	++	0	0	0	inhibited the development of cpe	potent inhibitors	potent inhibitors	–	150	+	0	–
Nc1ncnc2c1ncn2[C@@H]1O[C@H](COP(=O)(O)O[C@@H]2[C@H](O)[C@@H](COP(=O)(O)O[C@@H]3[C@H](O)[C@@H](CO)O[C@H]3n3cnc4c(N)ncnc43)O[C@H]2n2cnc3c(N)ncnc32)[C@@H](O)[C@H]1O [(2'-5')A(pA)2, adenylyl-(2'-5')adenylyl(2'-5')adenosine]	150 to 300 µM and 300 µM	300	inhibited	+++	0	++	++	0	++	++	0	0	0	inhibited the development of cpe	potent inhibitors	potent inhibitors	150 to 300 µM and 300 µM	150 to 300	+	0	–
